≈ marks a conversion by molar mass, not a printed value. Where “and” joins values, the source holds several entries; their conditions need not be identical. Identical values can stand only once.
Assays:
[1] = system: Candida albicans ATCC 14053; experiment: Antifungal susceptibility study (1), broth microdilution MIC; assay type: cell-based; settings: lowest concentration preventing any visible growth, read at 48 hours, 35° C., RPMI 1640 pH 7.0
In short: (§1)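 Broth microdilution in test medium at pH 7.0 with two-fold compound dilutions (DMSO stocks diluted 50-fold into medium), inoculated with freshly grown yeast cultures. Plates were incubated without agitation at 35° C. for C. albicans or 25° C. for C. humicolus. MIC was taken as the concentration with no visible growth, read at 48 hours.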

[2] = system: Cryptococcus humicolus ATCC 9949; experiment: as above; assay type: cell-based; settings: lowest concentration preventing any visible growth, read at 48 hours, 25° C., RPMI 1640 pH 7.0
In short: as §1

[3] = system: Aspergillus niger ATCC 16404; experiment: as above; assay type: cell-based; settings: lowest concentration preventing any visible growth, read at 48 hours, 35° C., RPMI 1640 pH 7.0
In short: (§2)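 Broth microdilution was run at pH 7.0 with compounds diluted from DMSO solutions and mixed 1:1 with conidial inoculum. Spore suspensions were adjusted to OD530 0.09-0.11 for A. niger or 0.15-0.17 for F. oxysporum, then diluted 1:50. Plates were incubated at 35° C without agitation, and MIC was read at 48 hours as absence of visible growth.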

[4] = system: Fusarium oxysporum VKM F-140; experiment: as above; assay type: cell-based; settings: lowest concentration preventing any visible growth, read at 48 hours, 35° C., RPMI 1640 pH 7.0
In short: as §2

human blood erythrocytes = experiment: In vitro toxicity study, haemolysis (Table 10); assay type: cell-based; settings: for Haemolysis of human blood erythrocytes: individual blood samples # 1-3
[5] = system: yeasts and filamentous fungi (moulds); experiment: Antifungal susceptibility study (1), overall comparison across the test organisms; assay type: cell-based; settings: Table 5 MICs
Method: The organisms used for susceptibility testing were: Candida albicans ATCC 14053, Cryptococcus humicolus ATCC 9949, Aspergillus niger ATCC 16404 and Fusarium oxysporum VKM F-140 (=CMI, IMI 90473). Organisms were stored on potato dextrose agar […] 50% glycerol solution at -70° C. For short-term storage, stock cultures were stored on agar […] 4° C. The cultures of yeasts were sub-cultured onto Sabouraud dextrose (SAB) agar and incubated for 24 hours at 35° C. (Candida albicans) or for 48 hours at 25° C. (Cryptococcus humicolus) to obtain a freshly grown pure culture. The cultures of moulds were sub-cultured onto potato dextrose agar and incubated for 7 days at 35° C. […] (Fusarium oxysporum) to ensure maximum sporulation. Sterile 96-well flat-bottomed microtitration plates were used for testing. 100 μl of diluted inocula were dispensed into each microdilution well containing 100 μl of the double dilutions of compounds. Drug-free and yeast/mould-free controls were included. Microdilution trays were incubated at 35° C. (Candida albicans and moulds) or 25° C. (Cryptococcus humicolus) without agitation and observed for the presence or absence of visible growth. […] Minimal inhibitory concentrations (MICs) were read at 48 hours.

[6] = system: Candida albicans ATCC 10231; experiment: Antifungal susceptibility study (2), MIC50 by OD490 growth; assay type: cell-based; settings: 50% growth inhibition from regression curve, M19 medium without NaCl, 30° C.
Method: The anti-fungal activity of several of the nystatin derivatives was further investigated. […] The anti-fungal activity of a number of the nystatin derivatives was therefore determined in a method which is designed to be more sensitive.
The test organism used for the further testing of polyene macrolide bioactivity was Candida albicans ATCC 10231, grown in 120 μl of standard M19 medium without NaCl (with an inoculum of 1000 cfu per well) and 30 μl of diluted polyene macrolide samples. The antibiotics were diluted in MeOH in series ensuring a spectrum of concentrations which yielded results ranging from complete growth inhibition to no inhibition of the test organism. The test organism cultures with antibiotic dilutions were incubated in 96-well microtiter plates at 30° C. without shaking, and growth was measured as OD490 after 12, 14 and 16 hours on a SpectraMax Plus microtiter plate reader. OD was plotted against antibiotic concentration, and MIC50 was estimated from the regression curve at 50% growth inhibition.

[7] = system: mice (C57B1/6xDBA/2)F1 B6D2F1; settings: single injection into tail vein, probit analysis
Method: (§3) Male mice of hybrids of first generation (C57B1/6xDBA/2)F1 B6D2F1, weight 20-22 g., received from the Central farm. “Kryukovo” of Russian Academies of Medical Science (RAMS) were used. Animals were maintained in a vivarium in plastic cages (with hardwood bedding in environmentally controlled conditions: 24±1° C., 12/12 hours light/dark cycle) on a standard diet of bricketed forages with easy access to drinking water (ad libitum). After a 2-week quarantine period, healthy animals were used in experimental work.
(§4) The solutions were prepared as follows: dry antibiotic substances (5 mg) were mixed with dry sodium deoxycholate (4.1 mg) in a sterile glass vial. 10 mL of phosphate buffer (NaH2PO4—1.59 g; Na2HPO4—0.96 g; H2O—to 100 mL) was added to the mix and the suspension was immediately subjected to vigorous shaking for 10 minutes until homogeneous suspensions were formed.
Preparations of amphotericin B and S44HP were also prepared in the same way.
The antibiotic preparations were singly injected into the mice's tail vein within 1-1.5 hours after the preparation of solutions. […] Each antibiotic was used in a range of doses resulting in 0% to 100% lethality and a minimum of 3 intermediate doses. Animals were randomized into groups, each containing 6 mice.

[8] = system: Candida albicans (strain 14053 ATCC); experiment: In vivo antifungal activity, kidney burden in infected mice; settings: colonies per 1 g of kidney tissue, day 5, individual mice
Method: as §3, §4
Animals were infected intravenously with Candida albicans culture at a dose of 1.0 million CFU/mouse (volume 0.1 mL). 30 minutes after infection, the antifungal agents were introduced intravenously into the mice at various doses in a volume of 0.2 mL (at a rate of 0.2 mL/30 second). Each dose was administered daily for four days including the day of infection (0, 1, 2 and 3 days).
As a control, there was a group of untreated mice (infected in the same way with Candida albicans). Also there was a “placebo” group of non-infected animals which were intravenously administered (in the same volume as antifungal agent preparations) 0.2 mL of solvent (phosphatic buffer +5% glucose (1:1)).
On the 5th day of experiment, mice were weighed and euthanized (killed) by a cervical dislocation. Then, in sterile conditions, the Candida albicans burden of each mouse was determined by counting of viable homogenates from the kidneys. The kidneys were removed aseptically and weighed, then pounded in porcelain mortars with sterile corundum. Dilutions of the resulting suspensions were prepared and sowed on Petri dishes with agar Saburo, incubated for 24 hours at a temperature of 35° C. Developed colonies of Candida albicans were then counted and their quantity calculated on the basis of 1 g of kidney tissue.

erythrocytes = experiment: In vitro toxicity study, haemolysis (Tables 11 and 12); assay type: cell-based, horse
Method: The toxicity of various nystatin derivatives was tested at 2 and 5 μg/mL and at 25 μM.
Compounds were dissolved in DMSO at 5 mg/mL and 0.1 mL samples with different concentrations were prepared in DMSO. The samples were mixed with 0.9 mL PBS buffer containing 2.5% horse blood (PBS-HB; kept on ice) and incubated at 37° C. for 30 min without agitation.
Cells were pelleted by centrifugation at 5000 rpm for 5 min and haemolysis was evaluated by measuring OD545. 100% haemolysis was defined as the OD545 value obtained from a suspension of 2.5% horse blood in distilled water.

Row | Compound | MIC Candida albicans ATCC 14053 [1] [µg/mL] | MIC Cryptococcus humicolus ATCC 9949 [2] [µg/mL] | MIC Aspergillus niger ATCC 16404 [3] [µg/mL] | MIC Fusarium oxysporum VKM F-140 [4] [µg/mL] | Haemolysis of human blood erythrocytes, MEAN ± SE (human blood erythrocytes; 2 μg/mL) [%] | Haemolysis of human blood erythrocytes (human blood erythrocytes; 2 μg/mL) | Haemolysis of human blood erythrocytes, MEAN ± SE (human blood erythrocytes; 5 μg/mL) [%] | Haemolysis of human blood erythrocytes (human blood erythrocytes; 5 μg/mL) | anti-fungal activity compared with Amphotericin B and S44HP [5] | MIC50 [6] [µg/mL] | LD50 [7] [mg/kg] | MTD [7] [mg/kg] | Number of Colonies ([8]; 0.08 mg/kg × 4/24 i.v.) | Number of Colonies ([8]; 0.15 mg/kg × 4/24 i.v.) | Number of Colonies ([8]; 0.3 mg/kg × 4/24 i.v.) | Number of Colonies ([8]; 0.6 mg/kg × 4/24 i.v.) | Haemolysis of erythrocytes, Mean ± S.E.M. (erythrocytes; 25 μM (Table 12)) [%] | Haemolysis of erythrocytes (erythrocytes; 25 μM, individual blood samples (Table 12)) | Haemolysis of erythrocytes, Mean ± SE (erythrocytes; 5 μg/mL (Table 11)) [%] | Haemolysis of erythrocytes (erythrocytes; 5 μg/mL, individual blood samples # 1-3 (Table 11))
1 | COC(=O)C(CO)NC(=O)C1C(O)CC2(O)CC(O)C(O)CCC(O)CC(O)CC(O)CC(=O)OC(C)C(C)C(O)C(C)C=CC=CC=CC=CC=CC=CC=CC(OC3OC(C)C(O)C(N)C3O)CC1O2 (stereo not drawn) [Compound 13] | 1 (≈ 0.975 µM) | 1 (≈ 0.975 µM) | 1 (≈ 0.975 µM) | 4 (≈ 3.9 µM) | 3.7 ± 0.6 | 3.3% and 3.0% and 4.9% | 14.5 ± 0.5 | 15.5% and 14% and 14.2% | comparable anti-fungal activity to Amphotericin B and S44HP |  |  |  |  |  |  |  |  |  |  | 
2 | C[C@@H]1[C@H](O)[C@@H](C)/C=C/C=C/C=C/C=C/C=C/C=C/C=C/[C@H](O[C@@H]2O[C@H](C)[C@@H](O)[C@H](N)[C@@H]2O)C[C@@H]2O[C@](O)(C[C@@H](O)[C@H](O)CC[C@@H](O)C[C@@H](O)C[C@@H](O)CC(=O)O[C@H]1C)C[C@H](O)[C@H]2C(=O)O [Compound S44HP, reference compound] | 1 (≈ 1.08 µM) | 1 (≈ 1.08 µM) | 1 (≈ 1.08 µM) | 4 (≈ 4.33 µM) |  |  |  |  |  | 0.12 (≈ 0.13 µM) | 2.05 | 0.64 | 2.7 × 10^4 and 8.0 × 10^4 and 8.2 × 10^4 | 8.0 × 10^3 and 6.4 × 10^3 and 1.6 × 10^4 | 2.7 × 10^3 and 9.4 × 10^3 and 1.3 × 10^4 | 2.5 × 10^3 and 8.8 × 10^3 and 1.2 × 10^3 |  |  |  | 
3 | CC1C=CC=CC=CC=CC=CC=CC=CC(OC2OC(C)C(O)C(NCC3(O)OCC(O)C(O)C3O)C2O)CC2OC(O)(CC(O)C(O)CCC(O)CC(O)CC(O)CC(=O)OC(C)C(C)C1O)CC(O)C2C(=O)O (single isomer, unassigned) [Compound 18] | 1 (≈ 0.921 µM) | 1 (≈ 0.921 µM) | 2 (≈ 1.84 µM) | 8 (≈ 7.36 µM) |  |  |  |  |  |  |  |  |  |  |  |  | 3.9 ± 1.3 | 3.0% and 3.2% and 9.7% and 1.0% and 1.5% and 5.3% |  | 
4 | CC1C=CC=CC=CC=CC=CC=CC=CC(OC2OC(C)C(O)C(N)C2O)CC2OC(O)(CC(O)C(O)CCC(O)CC(O)CC(O)CC(=O)OC(C)C(C)C1O)CC(O)C2C(=O)N1CCN(CCO)CC1 (stereo not drawn) [Compound 15] | 1 (≈ 0.965 µM) | 2 (≈ 1.93 µM) | 2 (≈ 1.93 µM) | 4 (≈ 3.86 µM) |  |  |  |  |  | 0.20 (≈ 0.193 µM) |  |  |  |  |  |  |  |  | 2.6 ± 0.1 | 2.8% and 2.4% and 2.7%

— patent US8415312B2, “Compound which is a nystatin derivative” (Biosergen AS, priority 2007, dated 2013)
